Measurements: patent US7915448B2, “Substituted sulfonylaminoarylmethyl cyclopropanecarboxamide as VR1 receptor antagonists” (Pfizer Inc., priority 2005, dated 2011)
pIC50: −log10 of the molar value.

Assays:
human VR1 receptors = biological target: T1, human VR1 receptors (Homo sapiens, UniProt Q8NER1); assay: Human VR1 antagonist assay (Ca2+ imaging); format: cell-based; details: cells expressing human VR1, fura-2 Ca2+ imaging, FDSS 6000; capsaicin (300 nM) or acid (pH5.8) stimulation, table does not say which
T1 construct: host or cells: cells highly expressing human VR1; cell type not specified
Source text: Human VR1 Antagonist Assay
VR1 antagonistic activity can be determined by the Ca^2+ imaging assay using human VR1 highly expressing cells. The cells that highly express human VR1 receptors are obtainable from several different conventional methods. The one standard method is cloning from human Dorsal Root Ganglion (DRG) or kidney according to the methods such as described in the journal article; Nature, 389, pp 816-824, 1997. Alternatively VR1 receptors highly expressing human keratinocytes are also known and published in the journal article (Biochemical and Biophysical Research Communications, 291, pp 124-129, 2002). […] Further more, the method to up regulate human VR1 gene, which is usually a silent gene or don't produce detectable level of VR1 receptors, is also available to obtain propriety cells. Such genetic modification method was described in detail; Nat. Biotechnol., 19, pp 440-445, 2001.
The cells that express human VR1 receptors were maintained in culture flask at 37° C. in an environment containing 5% CO2 until use in the assay. The intracellular Ca^2+ imaging assay to determine VR1 antagonistic activities were done by following procedures.
The culture medium was removed from the flask and fura-2/AM fluorescent calcium indicator was added to the flask at a concentration of 5 μM in the medium. The flask was placed in CO2 incubator and incubated for 1 hour. Then the cells expressing the human VR1 receptors were detached from the flask follow by washing with phosphate buffer saline, PBS(−) and re-suspended in assay buffer. The 80 μl of aliquot of cell suspension (3.75×10^5 cells/ml) was added to the assay plate and the cells were spun down by centrifuge (950 rpm, 20° C., 3 minutes).
Capsaicin Stimulation Assay:
The capsaicin-induced changes in the intracellular calcium concentration were monitored using FDSS 6000 (Hamamatsu Photonics, Japan), a fluorometric imaging system. The cell suspension in Krebs-Ringer HEPES (KRH) buffer (115 mM NaCl, 5.4 mM KCl, 1 mM MgSO4, 1.8 mM CaCl2, 11 mM D-Glucose, 25 mM HEPES, 0.96 mM Na2HPO4, pH 7.3) were pre-incubated with varying concentrations of the test compounds or KRH buffer (buffer control) for 15 minutes at room temperature under the dark condition. Then capsaicin solution, which gives 300 nM in assay mixture, was automatically added to the assay plate by the FDSS 6000.
The Acid-induced changes in the intracellular calcium concentration were monitored using FDSS 6000 (Hamamatsu Photonics, Japan), a fluorometric imaging system. The cell suspension in resting buffer (HBSS supplemented with 10 mM HEPES, pH 7.4) were pre-incubated with varying concentrations of the test compounds or resting buffer (buffer control) for 15 minutes at room temperature under the dark condition. The cells were automatically added the stimulating solution (HBSS supplemented with MES, final assay buffer pH5.8) by the FDSS 6000.
Determination of Antagonist Activity
The monitoring of the changes in the fluorescence signals (λex=340 nm/380 nm, λem=510-520 nm) was initiated at 1 minute prior to the addition of capsaicin solution or acidic buffer and continued for 5 minute.

[1] = Half-life in Human Liver Microsomes (HLM); details: human, human liver microsomes (HL101), pH 7.4
Description: Test compounds (1 μM) were incubated with 3.3 mM MgCl2 and 0.78 mg/mL HLM (HL101) in 100 mM potassium phosphate buffer (pH 7.4) at 37° C. on the 96-deep well plate. The reaction mixture was split into two groups, a non-P450 and a P450 group. NADPH was only added to the reaction mixture of the P450 group. An aliquot of samples of P450 group was collected at 0, 10, 30, and 60 min time point, where 0 min time point indicated the time when NADPH was added into the reaction mixture of P450 group. An aliquot of samples of non-P450 group was collected at −10 and 65 min time point. Collected aliquots were extracted with acetonitrile solution containing an internal standard. The precipitated protein was spun down in centrifuge (2000 rpm, 15 min). The compound concentration in supernatant was measured by LC/MS/MS system.
The half-life value was obtained by plotting the natural logarithm of the peak area ratio of compounds/internal standard versus time. The slope of the line of best fit through the points yields the rate of metabolism (k).

T1 sequence (Q8NER1 whole entry): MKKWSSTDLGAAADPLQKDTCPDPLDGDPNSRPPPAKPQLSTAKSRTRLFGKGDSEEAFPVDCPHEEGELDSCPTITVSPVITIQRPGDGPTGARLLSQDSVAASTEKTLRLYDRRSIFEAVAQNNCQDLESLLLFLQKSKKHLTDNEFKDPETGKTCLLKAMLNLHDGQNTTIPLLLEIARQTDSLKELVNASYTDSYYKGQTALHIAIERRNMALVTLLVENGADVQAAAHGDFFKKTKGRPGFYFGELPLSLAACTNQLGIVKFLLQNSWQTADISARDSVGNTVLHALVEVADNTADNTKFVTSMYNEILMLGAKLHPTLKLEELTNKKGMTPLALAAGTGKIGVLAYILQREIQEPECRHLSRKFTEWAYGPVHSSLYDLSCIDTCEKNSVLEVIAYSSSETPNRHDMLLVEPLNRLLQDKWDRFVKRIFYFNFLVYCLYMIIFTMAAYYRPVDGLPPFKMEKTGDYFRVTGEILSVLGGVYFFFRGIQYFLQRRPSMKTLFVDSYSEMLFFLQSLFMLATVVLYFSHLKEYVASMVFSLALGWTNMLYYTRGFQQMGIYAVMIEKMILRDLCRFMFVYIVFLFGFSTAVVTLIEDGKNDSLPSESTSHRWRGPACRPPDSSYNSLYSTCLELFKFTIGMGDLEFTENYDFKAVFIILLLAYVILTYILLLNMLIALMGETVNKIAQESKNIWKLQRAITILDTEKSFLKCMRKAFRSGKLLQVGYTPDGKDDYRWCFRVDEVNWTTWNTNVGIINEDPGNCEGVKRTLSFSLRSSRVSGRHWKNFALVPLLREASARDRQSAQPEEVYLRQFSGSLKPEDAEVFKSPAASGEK

| Structure (SMILES) | pIC50 (human VR1 receptors) | half-life at 1 μM [1] |
| --- | --- | --- |
| C[C@@H](NC(=O)C1CC1(C)c1ccc(C(C)(C)C(F)(F)F)cc1)c1ccc(NS(C)(=O)=O)c(F)c1 (single isomer, unassigned) [Example 77] | 7.30 | 50 min |
| Cc1cc([C@H](C)NC(=O)[C@H]2C[C@]2(C)c2ccc(C(F)(F)F)cc2)ccc1NS(C)(=O)=O (single isomer, unassigned) [Example 82] | 7.21 | 26 min |
| CC(C)(C)c1ccc(C2CC2C(=O)NCc2ccc(NS(C)(=O)=O)c(F)c2)cc1 (stereo not drawn) [Example 1, 2-(4-tert-Butylphenyl)-N-{3-fluoro-4-[(methylsulfonyl)amino]benzyl}cyclopropanecarboxamide] | 6.48 | 13 min |
| Cc1cc([C@@H](C)NC(=O)C2CC2c2ccc(C(C)(C)C)c(F)c2)ccc1NS(C)(=O)=O (stereo partly drawn) [Example 2, 2-(4-tert-Butyl-3-fluorophenyl)-N-((1R)-1-{3-methyl-4-[(methylsulfonyl)amino]phenyl}ethyl)cyclopropanecarboxamide] | 7.95 | 32 min |
| Cc1cc(CNC(=O)C2CC2c2ccc(C(C)(C)C)c(F)c2)ccc1NS(C)(=O)=O (stereo not drawn) [Example 4, 2-(4-tert-Butyl-3-fluorophenyl)-N-{3-methyl-4-[(methylsulfonyl)amino]benzyl}cyclopropanecarboxamide] | 6.72 | 9 min |
| Cc1cc(CNC(=O)C2CC2(C)c2ccc(C(C)(C)C)cc2)ccc1NS(C)(=O)=O (stereo not drawn) [Example 5, 2-(4-tert-Butylphenyl)-2-methyl-N-{3-methyl-4-[(methylsulfonyl)amino]benzyl}cyclopropanecarboxamide] | 7.40 | 5 min |
| Cc1cc(CNC(=O)C2CC2c2ccc(C(C)(C)C(F)(F)F)cc2)ccc1NS(C)(=O)=O (stereo not drawn) [Example 6, N-{3-Methyl-4-[(methylsulfonyl)amino]benzyl}-2-[4-(2,2,2-trifluoro-1,1-dimethylethyl)phenyl]cyclopropanecarboxamide] | 7.74 | 18 min |
| C[C@@H](NC(=O)C1CC1c1ccc(C(C)(C)C)cc1)c1ccc(NS(C)(=O)=O)c(F)c1 (stereo partly drawn) [Example 8, 2-(4-tert-Butylphenyl)-N-((1R)-1-{3-fluoro-4-[(methylsulfonyl)amino]phenyl}ethyl)cyclopropanecarboxamide] | 7.42 | 37 min |
| Cc1nc([C@@H](C)NC(=O)C2CC2(C)c2ccc(C(C)(C)C(F)(F)F)cc2)ccc1NS(C)(=O)=O (stereo partly drawn) [Example 9, 2-Methyl-N-((1R)-1-{6-methyl-5-[(methylsulfonyl)amino]pyridin-2-yl}ethyl)-2-[4-(2,2,2-trifluoro-1,1-dimethylethyl)phenyl]cyclopropanecarboxamide] | 6.77 | 42 min |
| Cc1cc([C@@H](C)NC(=O)C2CC2(C)c2ccc(C(C)(C)C)nc2)ccc1NS(C)(=O)=O (stereo partly drawn) [Example 10, 2-(6-tert-Butylpyridin-3-yl)-2-methyl-N-((1R)-1-{3-methyl-4-[(methylsulfonyl)amino]phenyl}ethyl)cyclopropanecarboxamide] | 8.44 | 22 min |
| Cc1cc([C@@H](C)NC(=O)C2CC2(C)c2ccc(C(F)(F)F)nc2)ccc1NS(C)(=O)=O (stereo partly drawn) [Example 12, 2-Methyl-N-((1R)-1-{3-methyl-4-[(methylsulfonyl)amino]phenyl}ethyl)-2-[6-(trifluoromethyl)pyridin-3-yl]cyclopropanecarboxamide] | 7.57 | 83 min |
| Cc1nc([C@@H](C)NC(=O)[C@H]2C[C@]2(C)c2ccc(C(F)(F)F)cc2)ccc1NS(C)(=O)=O [Example 14, (1S,2S)-2-Methyl-N-((1R)-1-{6-methyl-5-[(methylsulfonyl)amino]pyridin-2-yl}ethyl)-2-[4-(trifluoromethyl)phenyl]cyclopropanecarboxamide] | 6.69 | > 120 min |
